Experimental data taken from patent US20070190544A1, “Methods of screening for resistance to microtuble-targeting drugs” (Emory University, priority 2005, published 2007).
“Also recorded” adds a separate entry of the source.

Key:
[1] = test system: KB-3-1 epidermal cells; settings: Asp26Glu β-tubulin mutation; cited from earlier work
[2] = test system: human breast cancer cells; settings: Glu198Gly β-tubulin mutation; cited from earlier work
[3] = test system: non-small cell lung cancer (NSCLC), Hela, and human leukemia cells; settings: Gln292Glu β-tubulin mutation; cited from earlier work
[4] = test system: 1A9 cells; assay: Cell cycle analysis by flow cytometry (G2/M arrest), 1A9 cells; assay type: cell-based, human
Protocol: (§1) Cell cycle analysis by flow cytometry was performed in the parental 1A9 and the 1A9-Epo^R clones, following overnight treatment with Epo A or Vincristine (VCR) as indicated. […] 10,000 events were recorded for each condition, the histogram is representative of three independent experiments.
(§2) Cells were plated in 6-well plates. The following day, they were treated with various concentrations of epothilone A and vincristine for 18 hours. Following treatment, both adherent and floating cells were harvested and pelleted by centrifugation. Cell pellets were suspended in 1 ml of 0.1 mg/ml propidium iodide containing 0.6% NP40 (ICN Pharmaceuticals, Costa Mesa, Calif.) with 1 mg/ml RNase A (Sigma Chemical Co.), then incubated in the dark at room temperature for 30 minutes. Data acquisition and analysis were performed on a FACScan instrument equipped with CellQuest software (Becton Dickinson Immunocytometry Systems, Franklin Lakes, N.J.). Cell cycle analysis was performed with Flowjo (Treestar). All cell cycle experiments were performed at least three times.

[5] = test system: 1A9-A8^E cells; assay: Cell cycle analysis by flow cytometry (G2/M arrest), 1A9-A8^E cells; assay type: cell-based, human
Protocol: as §1, §2

[6] = test system: 1A9-A8 cells; assay: Cell cycle analysis by flow cytometry (G2/M arrest), 1A9-A8 cells; assay type: cell-based, human
Protocol: as §1, §2

[7] = test system: human epidermoid carcinoma cell line; settings: Thr274Pro β-tubulin mutation; cited from earlier work
[8] = test system: 1A9-A8 cells; assay: cells; assay type: cell-based, human; settings: for IC50: 1A9-A8 cells, 72 hour exposure to the drug; for Relative Resistance (1A9-A8): ratio of IC50 against 1A9-A8 divided by IC50 against parental 1A9
Protocol: (§3) The epothilone A resistant cell line, 1A9-A8, was selected from the human ovarian carcinoma 1A9 cells as described by Giannakakou et al. ((2000) Proc. Natl. Acad. Sci. USA 97:2904-2909). The 1A9-A8^E clone (expressing both wt and mutant alleles) was an intermediate isolate in the selection process of 1A9-A8 (mutant allele only) cells. These cells were cultured in RPMI 1640 medium (Cellgro, Herndon, Va.) supplemented with 10% fetal bovine serum (Invitrogen, Carlsbad, Calif.) and 1% Penicillin-Streptomycin (Cellgro), and grown as monolayers at 37° C. in a 5% CO2 tissue culture incubator. The mouse monoclonal anti-α-tubulin (DM1α) antibody used is from Sigma Chemical Co. (St. Louis, Mo.). Both epothilones A and B were a generous gift from the laboratory of K. C. Nicolaou (The Scripps Research Institute, La Jolla, Calif.). Paclitaxel (Taxol®) was purchased from Sigma Chemical Co. and vincristine from Eli-Lilly (Indianapolis, Ind.).
(§4) Cytotoxicity assays using the protein-staining sulforhodamine B (SRB) method were performed in 96-well plates, as described by Giannakakou et al. ((1997) J. Biol. Chem. 272:17118-17125).

[9] = test system: 1A9 cells; assay: cells; assay type: cell-based, human; settings: parental 1A9 cells, 72 hour exposure to the drug
Protocol: as §3, §4

[10] = test system: 1A9-A8^E cells; assay: cells; assay type: cell-based, human; settings: for IC50: 1A9-A8^E cells, 72 hour exposure to the drug; for Relative Resistance (1A9-A8^E): ratio of IC50 against 1A9-A8^E divided by IC50 against parental 1A9; for resistance of early-step isolate 1A9-A8^E to the selecting agent: growth inhibition assays, versus parental 1A9
Protocol: as §3, §4

[11] = test system: 1A9/B10 ovarian cancer cells; settings: βArg282Gln mutation, EpoB-selected 1A9/B10 cells; cited from earlier work
[12] = test system: 1A9-A8^E cells; assay: Mitotic index analysis, 1A9-A8^E cells; assay type: cell-based, human; settings: 24 hr
Protocol: (§5) Cells were plated on glass coverslips and treated with drugs for 24 hours. Cells were fixed with ice-cold methanol and DNA was stained with Sytox Green (Molecular Probes, Eugene, Oreg.). Epifluorescence microscopy was used to count a minimum of 500 cells per drug treatment and mitotic figures were scored.

[13] = target: T1, tubulin (Homo sapiens, UniProt P07437); assay: Cell-based tubulin polymerization assay, 1A9 cells
T1 construct: endogenous in cells; host or cells: 1A9 human ovarian carcinoma cells
T1 sequence (P68363 whole entry): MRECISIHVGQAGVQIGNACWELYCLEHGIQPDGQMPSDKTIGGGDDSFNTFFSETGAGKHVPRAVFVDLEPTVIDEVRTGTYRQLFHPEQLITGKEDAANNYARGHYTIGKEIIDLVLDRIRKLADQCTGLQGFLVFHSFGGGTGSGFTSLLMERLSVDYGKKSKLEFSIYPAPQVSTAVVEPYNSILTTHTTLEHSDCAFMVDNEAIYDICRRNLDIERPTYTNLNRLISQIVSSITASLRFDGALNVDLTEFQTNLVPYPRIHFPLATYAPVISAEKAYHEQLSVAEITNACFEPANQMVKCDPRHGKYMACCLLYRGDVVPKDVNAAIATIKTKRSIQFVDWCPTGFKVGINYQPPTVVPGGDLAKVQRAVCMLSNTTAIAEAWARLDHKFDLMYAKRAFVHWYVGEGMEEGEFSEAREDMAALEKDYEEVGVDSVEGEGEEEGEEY
T1 sequence (P07437 whole entry): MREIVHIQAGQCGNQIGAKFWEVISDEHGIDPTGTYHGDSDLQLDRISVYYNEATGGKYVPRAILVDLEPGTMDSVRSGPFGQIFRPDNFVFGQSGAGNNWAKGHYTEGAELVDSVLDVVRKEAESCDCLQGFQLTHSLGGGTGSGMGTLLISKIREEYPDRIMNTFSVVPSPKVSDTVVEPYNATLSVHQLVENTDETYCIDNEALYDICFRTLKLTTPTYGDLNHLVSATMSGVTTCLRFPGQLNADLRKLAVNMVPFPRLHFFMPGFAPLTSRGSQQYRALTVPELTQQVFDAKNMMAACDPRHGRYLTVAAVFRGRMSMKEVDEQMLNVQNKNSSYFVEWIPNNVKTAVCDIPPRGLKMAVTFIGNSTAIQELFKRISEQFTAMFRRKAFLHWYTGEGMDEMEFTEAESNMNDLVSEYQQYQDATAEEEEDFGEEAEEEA
Protocol: (§6) Drug-sensitive parental 1A9 (top panel) and the Epo A-resistant clones, 1A9/A8 and 1A9/A8E (lower panel), were treated for 5 hours with or without (0) various concentrations of Epo A as indicated. After cell lysis, the polymerized (P) and the soluble (S) protein fractions were separated by centrifugation, resolved by SDS/PAGE, and immunoblotted with an antibody against alpha-tubulin. The percent of polymerized tubulin (% P) was determined by dividing the densitometric value of polymerized tubulin by the total tubulin content (the sum of P plus S). The results shown are from a representative experiment of four independent observations.
(§7) In order to examine whether the tubulin gene status correlates with the ability of epothilone to induce tubulin polymerization in the three related cell lines (1A9, 1A9-A8, and 1A9-A8^E), cell-based tubulin polymerization assays were performed (FIG. 1). After treating the cells with escalating doses of Epo A, the cells were harvested in a low salt buffer and then centrifuged to separate the pellet fraction containing the polymerized form of tubulin, from the supernatant that contains the soluble form of tubulin. […]
(§8) Quantitation of the degree of in vivo tubulin polymerization in response to Epothilone A was performed as described by Giannakakou et al. ((1997) J. Biol. Chem. 272:17118-17125). […]

[14] = test system: 1A9-A8 cells; assay: Mitotic index analysis, 1A9-A8 cells; assay type: cell-based, human; settings: 24 hr
Protocol: as §5

[15] = test system: 1A9 cells; assay: Mitotic index analysis, 1A9 cells; assay type: cell-based, human; settings: 24 hr
Protocol: as §5

[16] = test system: tubulin; assay: Cell-based tubulin polymerization assay, 1A9-A8^E cells; set-up: species or system human
Protocol: as §6, §7, §8

[17] = target: T2, tubulin (Homo sapiens, UniProt P07437, T274I); assay: Cell-based tubulin polymerization assay, 1A9-A8 cells
T2 construct: endogenous in cells; host or cells: 1A9-A8 cells (late-step epothilone A-resistant clone of 1A9)
T2 sequence (P07437 whole entry T274I): as the sequence (P07437 whole entry) above, with T274I counted along it
T2 sequence (P68363 whole entry partner): as the sequence (P68363 whole entry) above
Protocol: as §6, §7, §8

[18] = test system: epothilone-resistant human ovarian cancer cell lines; settings: Thr274Ile and Arg282Gln epothilone-selected ovarian lines; cited from earlier work
[19] = test system: human ovarian cancer clones; settings: two Taxol-selected ovarian clones, Phe270Val and Ala364Thr; cited from earlier work

## CC(=O)O[C@@]12CO[C@@H]1C[C@H](O)[C@@]1(C)C(=O)[C@H](O)C3=C(C)[C@@H](OC(=O)[C@H](O)[C@@H](NC(=O)OC(C)(C)C)c4ccccc4)C[C@@](O)([C@@H](OC(=O)c4ccccc4)[C@H]21)C3(C)C [Taxotere]
[1]
  fold resistance / cross-resistance: 10 fold
[2]
  fold resistance / cross resistance: some cross resistance
[3]
  fold resistance / cross-resistance: 13 fold

## CC[C@]1(O)C[C@H]2CN(CCc3c([nH]c4ccccc34)[C@@](C(=O)OC)(c3cc4c(cc3OC)N(C=O)[C@H]3[C@@](O)(C(=O)OC)[C@H](OC(C)=O)[C@]5(CC)C=CCN6CC[C@]43[C@@H]65)C2)C1 [Vincristine]
[4]; 10 nM
  G2/M arrest: G2/M arrest
[5]; 10 nM
  G2/M arrest: arrested in G2/M
[5]; 10 nM, listed as vincristine
  G2/M arrest: G2/M arrest
[6]; 10 nM
  G2/M arrest: arrested in G2/M
[6]; 10 nM, listed as vincristine
  G2/M arrest: G2/M arrest

## C/C(=C\c1csc(C)n1)[C@@H]1C[C@@H]2O[C@]2(C)CCC[C@H](C)[C@H](O)[C@@H](C)C(=O)C(C)(C)[C@@H](O)CC(=O)O1 [Epothilone B]
[1]
  fold resistance / cross-resistance: minimal cross-resistance
[7]
  fold resistance / cross-resistance: 8 fold
[8]
  IC50: 29 nM
  Relative Resistance (1A9-A8): 32
[9]
  IC50: 0.9 nM
[10]
  IC50: 8 nM
  Relative Resistance (1A9-A8^E): 9
[11]
  fold resistance / cross-resistance: 24-53 fold

## C/C(=C\c1csc(C)n1)[C@@H]1C[C@@H]2O[C@@H]2CCC[C@H](C)[C@H](O)[C@@H](C)C(=O)C(C)(C)[C@@H](O)CC(=O)O1 [Epothilone A]
[12]; 10 nM
  Mitotic Index (%): 39%
[12]; 100 nM
  Mitotic Index (%): 47%
[7]
  fold resistance / cross-resistance: 45 fold
[13]; 1A9 cells, escalating doses
  effect on tubulin polymerization: dose-dependent increase in tubulin polymerization
[13]; parental 1A9 cells, 150 nM
  percent of polymerized tubulin (% P): 90%
[4]; Epo A overnight treatment
  G2/M arrest: complete G2/M arrest
[14]; 10 nM
  Mitotic Index (%): 2.7%
[14]; 100 nM
  Mitotic Index (%): 6.1%
[15]; 10 nM
  Mitotic Index (%): 82%
[15]; 100 nM
  Mitotic Index (%): 96%
[16]; 1A9-A8^E cells, escalating doses
  effect on tubulin polymerization: intermediate degree of tubulin polymerization
[16]; early-step 1A9-A8^E cells, 150 nM
  percent of polymerized tubulin (% P): 70%
[17]; 1A9-A8 cells, up to highest drug concentration (1500 nM)
  effect on tubulin polymerization: almost no effect on tubulin polymerization
[17]; late-step 1A9-A8 cells, 150 nM
  percent of polymerized tubulin (% P): 3%
[8]
  IC50: 125 nM
  Relative Resistance (1A9-A8): 39
[8]; growth inhibition assays, versus parental 1A9
  resistance of late-step 1A9-A8 clone to the selecting agent: 40 fold
[9]
  IC50: 3.2 nM
[10]
  IC50: 32 nM
  resistance of early-step isolate 1A9-A8^E to the selecting agent: 10 fold
  Relative Resistance (1A9-A8^E): 10
[10]; listed as Epo A
  resistance of early-step isolate 1A9-A8^E to the selecting agent: ten-fold
[5]; Epo A overnight treatment
  G2/M arrest: partially arrested in G2/M; also recorded: modest G2/M arrest
[11]
  fold resistance / cross-resistance: 57-74 fold
[6]; Epo A overnight treatment, even at the highest concentration
  G2/M arrest: failed to arrest in mitosis; also recorded: no change was observed in the cell cycle profile

## CC(=O)O[C@H]1C(=O)[C@@]2(C)[C@H]([C@H](OC(=O)c3ccccc3)[C@]3(O)C[C@H](OC(=O)[C@H](O)[C@@H](NC(=O)c4ccccc4)c4ccccc4)C(C)=C1C3(C)C)[C@]1(OC(C)=O)CO[C@@H]1C[C@@H]2O [Paclitaxel]
[1]
  fold resistance / cross-resistance: 18 fold
[18]
  cross-resistance: 7-10 fold
[7]
  fold resistance / cross-resistance: 96 fold
[19]
  fold resistance (IC50 resistant line over IC50 parental line): 30 fold
[2]
  fold resistance / cross resistance: 17 fold
[3]
  fold resistance / cross-resistance: 22 fold
[8]; Homo sapiens
  IC50: 15 nM
[8]
  Relative Resistance (1A9-A8): 10
[9]; Homo sapiens
  IC50: 1.5 nM
[10]; Homo sapiens
  IC50: 9 nM
[10]
  Relative Resistance (1A9-A8^E): 6
